Experiment [1] deals with wild-type EZH2 (PRC2 complex) (Homo sapiens (Human), UniProt Q15910). Put plainly: PRC2 enzyme assay on peptide substrates (wild-type EZH2).
For a further experiment, the system named is WSU-DLCL2 cells. Put plainly: Cell proliferation analysis (WSU-DLCL2, Cell Titer Glo). In kind it is cell-based. Conditions: Homo sapiens, 6 days.
Experiment [2] concerns H3K27me3 in WSU-DLCL2 cells. The experiment in a line: WSU-DLCL2 methylation assay (H3K27me3 ELISA). The experiment is classed as cell-based. The settings on record: Homo sapiens, 96 hours. On the technique in general: An ELISA detects its analyte on a solid surface through an enzyme-linked reagent.
Excerpt: WSU-DLCL2 suspension cells were purchased from DSMZ (German Collection of Microorganisms and Cell Cultures, Braunschweig, Germany). RPMI/Glutamax Medium, Penicillin-Streptomycin, Heat Inactivated Fetal Bovine Serum, and D-PBS were purchased from Life Technologies, Grand Island, N.Y., USA. Extraction Buffer and Neutralization Buffer (5×) were purchased from Active Motif, Carlsbad, Calif., USA. Rabbit anti-Histone H3 antibody was purchased from Abcam, Cambridge, Mass., USA. Rabbit anti-H3K27me3 and HRP-conjugated anti-rabbit-IgG were purchased from Cell Signaling Technology, Danvers, Mass., USA. TMB “Super Sensitive” substrate was sourced from BioFX Laboratories, Owings Mills, Md., USA. IgG-free Bovine Serum Albumin was purchased from Jackson ImmunoResearch, West Grove, Pa., USA. PBS with Tween (10×PBST) was purchased from KPL, Gaithersburg, Md., USA. Sulfuric Acid was purchased from Ricca Chemical, Arlington, Tex., USA. Immulon ELISA plates were purchased from Thermo, Rochester, N.Y., USA. V-bottom cell culture plates were purchased from Corning Inc., Corning, N.Y., USA. V-bottom polypropylene plates were purchased from Greiner Bio-One, Monroe, N.C., USA.
WSU-DLCL2 cells were seeded in assay medium at a concentration of 50,000 cells per mL to a 96-well V-bottom cell culture plate with 200 μL per well. […] Plates were incubated on a titer-plate shaker at 37° C., 5% CO2 for 96 hours. After four days of incubation, plates were spun at 241×g for five minutes and medium was aspirated gently from each well of cell plate without disturbing cell pellet. Pellet was resuspended in 200 μL DPBS and plates were spun again at 241×g for five minutes. The supernatant was aspirated and cold (4° C.) Extraction buffer (100 μL) was added per well. Plates were incubated at 4° C. on orbital shaker for two hours. […] Supernatant (80 μL per well) was transferred to its respective well in 96 well V-bottom polypropylene plate. Neutralization Buffer 5× (20 μL per well) was added to V-bottom polypropylene plate containing supernatant. V-bottom polypropylene plates containing crude histone preparation (CHP) were incubated on orbital shaker×five minutes. Crude Histone Preparations were added (2 μL per well) to each respective well into duplicate 96 well ELISA plates containing 100 μL Coating Buffer (1×PBS+BSA 0.05% w/v). Plates were sealed and incubated overnight at 4° C. The following day, plates were washed three times with 300 μL per well 1×PBST. […] For H3K27me3 detection, 100 μL of HRP conjugated anti-rabbit IgG antibody diluted to 1:4000 in ELISA diluent was added per well. Plates were incubated at room temperature for 90 minutes. […] TMB substrate 100 μL was added per well. Histone H3 plates were incubated for five minutes at room temperature. H3K27me3 plates were incubated for 10 minutes at room temperature. The reaction was stopped with sulfuric acid 1N (100 μL per well). Absorbance for each plate was read at 450 nm.
Each plate included eight control wells of DMSO only treatment (Minimum Inhibition) as well as eight control wells for maximum inhibition (Background wells).
The average of the ratio values for each control type was calculated and used to determine the percent inhibition for each test well in the plate. […] Percent inhibition was determined and IC50 curves were generated using duplicate wells per concentration of compound.
Where [3] appears, read: WSUDLCL2, Table 3A, read-out: WSU Prolif. IC50.
[4] abbreviates: WSUDLCL2, Table 3A, read-out: H3K27Me3 ELISA IC50.
Setting [5] is: read-out: WT EZH2 IC50, Table 3B, wild-type PRC2 enzyme, peptide substrate.
[6] abbreviates: WSUDLCL2, Table 3B, read-out: ELISA H3K27me3 IC50.
Setting [7] is: WSUDLCL2, Table 3B, read-out: WSU proliferation IC50.

Where two headings read alike, the source gives them in different places.

wild-type EZH2 (PRC2 complex), sequence (Q15910 other isoform, or with tags, fused parts or gaps): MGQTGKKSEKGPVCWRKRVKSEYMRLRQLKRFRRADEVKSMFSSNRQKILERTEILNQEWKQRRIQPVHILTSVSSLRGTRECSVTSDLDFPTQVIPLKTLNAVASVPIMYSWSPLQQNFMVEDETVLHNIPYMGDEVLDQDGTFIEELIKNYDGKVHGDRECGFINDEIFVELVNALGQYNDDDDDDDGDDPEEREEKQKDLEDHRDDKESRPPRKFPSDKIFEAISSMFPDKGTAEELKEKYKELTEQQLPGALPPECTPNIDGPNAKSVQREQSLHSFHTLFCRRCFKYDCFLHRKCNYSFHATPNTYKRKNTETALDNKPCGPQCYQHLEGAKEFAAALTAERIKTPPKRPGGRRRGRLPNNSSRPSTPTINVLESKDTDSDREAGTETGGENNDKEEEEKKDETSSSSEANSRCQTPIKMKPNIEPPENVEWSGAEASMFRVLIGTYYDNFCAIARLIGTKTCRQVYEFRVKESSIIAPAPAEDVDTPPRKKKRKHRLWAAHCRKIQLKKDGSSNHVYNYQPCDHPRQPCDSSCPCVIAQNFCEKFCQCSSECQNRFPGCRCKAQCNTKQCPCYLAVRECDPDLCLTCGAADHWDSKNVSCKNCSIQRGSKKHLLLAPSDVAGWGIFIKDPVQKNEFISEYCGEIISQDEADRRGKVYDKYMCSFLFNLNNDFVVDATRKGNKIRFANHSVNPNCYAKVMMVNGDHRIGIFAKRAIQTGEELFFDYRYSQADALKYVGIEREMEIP
wild-type EZH2 (PRC2 complex), sequence (O75530 whole entry partner): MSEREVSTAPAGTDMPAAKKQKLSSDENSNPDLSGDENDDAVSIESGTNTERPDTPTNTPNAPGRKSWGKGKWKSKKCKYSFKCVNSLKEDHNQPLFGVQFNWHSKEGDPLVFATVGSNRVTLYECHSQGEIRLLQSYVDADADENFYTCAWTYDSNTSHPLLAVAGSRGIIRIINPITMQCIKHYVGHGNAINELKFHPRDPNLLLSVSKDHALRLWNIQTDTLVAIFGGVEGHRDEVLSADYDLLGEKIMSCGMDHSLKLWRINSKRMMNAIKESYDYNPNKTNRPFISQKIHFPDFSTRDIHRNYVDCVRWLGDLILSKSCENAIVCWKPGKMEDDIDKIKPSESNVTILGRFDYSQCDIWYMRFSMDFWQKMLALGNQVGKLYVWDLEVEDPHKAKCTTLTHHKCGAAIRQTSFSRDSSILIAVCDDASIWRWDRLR
wild-type EZH2 (PRC2 complex), sequence (Q15022 whole entry partner): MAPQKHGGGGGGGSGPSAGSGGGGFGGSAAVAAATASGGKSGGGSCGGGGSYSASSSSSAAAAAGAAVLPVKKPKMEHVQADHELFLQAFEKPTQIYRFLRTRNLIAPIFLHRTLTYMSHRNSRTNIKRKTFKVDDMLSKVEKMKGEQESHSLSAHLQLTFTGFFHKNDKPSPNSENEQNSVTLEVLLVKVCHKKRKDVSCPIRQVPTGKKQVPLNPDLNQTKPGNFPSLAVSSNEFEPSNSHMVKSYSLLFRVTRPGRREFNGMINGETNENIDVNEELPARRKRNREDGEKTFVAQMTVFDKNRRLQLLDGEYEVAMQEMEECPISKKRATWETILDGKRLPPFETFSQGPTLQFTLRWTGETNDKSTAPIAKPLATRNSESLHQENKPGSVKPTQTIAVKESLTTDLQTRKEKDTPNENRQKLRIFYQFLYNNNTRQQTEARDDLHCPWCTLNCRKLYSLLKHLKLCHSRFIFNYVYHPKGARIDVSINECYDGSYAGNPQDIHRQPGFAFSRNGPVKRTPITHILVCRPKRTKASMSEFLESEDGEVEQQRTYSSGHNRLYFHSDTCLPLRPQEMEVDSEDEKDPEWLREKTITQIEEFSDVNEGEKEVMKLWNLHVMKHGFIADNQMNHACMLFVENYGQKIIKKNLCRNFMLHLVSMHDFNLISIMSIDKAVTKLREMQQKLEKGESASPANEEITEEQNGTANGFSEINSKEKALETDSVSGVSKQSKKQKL
wild-type EZH2 (PRC2 complex), sequence (Q09028 whole entry partner): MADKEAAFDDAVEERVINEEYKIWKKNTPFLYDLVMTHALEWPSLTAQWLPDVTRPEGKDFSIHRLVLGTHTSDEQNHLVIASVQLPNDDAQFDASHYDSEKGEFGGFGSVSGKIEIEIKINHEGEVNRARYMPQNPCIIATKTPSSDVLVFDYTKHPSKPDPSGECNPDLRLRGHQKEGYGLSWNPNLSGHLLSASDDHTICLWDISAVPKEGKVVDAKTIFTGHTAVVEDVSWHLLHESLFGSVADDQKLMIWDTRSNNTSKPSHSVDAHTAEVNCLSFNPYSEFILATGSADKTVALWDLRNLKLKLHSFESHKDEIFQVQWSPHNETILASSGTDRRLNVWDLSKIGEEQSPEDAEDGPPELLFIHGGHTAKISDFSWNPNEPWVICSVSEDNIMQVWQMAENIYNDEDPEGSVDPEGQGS

Consider `CCN(c1cc(-c2ccc(OCCO)cc2)cc(C(=O)NCc2c(C)cc(C)[nH]c2=O)c1C)[C@H]1CC[C@H](N(C)C)CC1` [Compound 3, N-((4,6-dimethyl-2-oxo-1,2-dihydropyridin-3-yl)methyl)-5-(((trans)-4-(dimethylamino)cyclohexyl)(ethyl)amino)-4′-(2-hydroxyethoxy)-4-methyl-[1,1′-biphenyl]-3-carboxamide], for which the IC50 was found to be 11.3 nM in experiment [1] and 186 nM in the experiment on WSU-DLCL2 cells (setting [3]).

In the case of `CCN(c1cc(-c2ccc(OCCO)nc2)cc(C(=O)NCc2c(C)cc(C)[nH]c2=O)c1C)[C@H]1CC[C@H](N(C)C)CC1` [Compound 4, N-((4,6-dimethyl-2-oxo-1,2-dihydropyridin-3-yl)methyl)-3-(((trans)-4-(dimethylamino)cyclohexyl)(ethyl)amino)-5-(6-(2-hydroxyethoxy)pyridin-3-yl)-2-methylbenzamide], the IC50 in experiment [1] was 8.9 nM; in experiment [2] (setting [4]) it was 21800 nM; in the experiment on WSU-DLCL2 cells (setting [3]), 23600 nM.

As to `CCN(c1cc(-c2ccc(OCCOC)cc2)cc(C(=O)NCc2c(OC)cc(C)[nH]c2=O)c1C)[C@H]1CC[C@H](N(C)C)CC1` [Compound 6b, 5-(((trans)-4-(dimethylamino)cyclohexyl)(ethyl)amino)-N-((4-methoxy-6-methyl-2-oxo-1,2-dihydropyridin-3-yl)methyl)-4′-(2-methoxyethoxy)-4-methyl-[1,1′-biphenyl]-3-carboxamide], the IC50 in experiment [1] was below 5 nM; in experiment [2] (setting [4]), 33.9 nM.

Consider `CCN(c1cc(C#CCN2CCN(C)CC2)cc(C(=O)NCc2c(C)cc(C)[nH]c2=O)c1C)[C@H]1CC[C@H](N(C)CCOC)CC1` [Compound 7, N-((4,6-dimethyl-2-oxo-1,2-dihydropyridin-3-yl)methyl)-3-(ethyl((trans)-4-((2-methoxyethyl)(methyl)amino)cyclohexyl)amino)-2-methyl-5-(3-(4-methylpiperazin-1-yl)prop-1-yn-1-yl)benzamide], for which the IC50 was found to be 21 nM in experiment [1], 458 nM in experiment [2] (setting [4]) and 651 nM in the experiment on WSU-DLCL2 cells (setting [3]).

For `CCN(c1cc(C#CC(C)(C)O)cc(C(=O)NCc2c(C)cc(C)[nH]c2=O)c1C)[C@H]1CC[C@H](N(C)CCOC)CC1` [Compound 8, N-((4,6-dimethyl-2-oxo-1,2-dihydropyridin-3-yl)methyl)-3-(ethyl((trans)-4-((2-methoxyethyl)(methyl)amino)cyclohexyl)amino)-5-(3-hydroxy-3-methylbut-1-yn-1-yl)-2-methylbenzamide], the IC50 in experiment [1] came to 8.82 nM; in experiment [2] (setting [4]) it was 292 nM; in the experiment with WSU-DLCL2 cells (setting [3]) it was 110 nM.

`CCN(c1cc(F)cc(C(=O)NCc2c(C)cc(C)[nH]c2=O)c1C)[C@H]1CC[C@H](N(C)CCOC)CC1` [Compound 9, N-((4,6-dimethyl-2-oxo-1,2-dihydropyridin-3-yl)methyl)-3-(ethyl((trans)-4-((2-methoxyethyl)(methyl)amino)cyclohexyl)amino)-5-fluoro-2-methylbenzamide]: the figures for the IC50 (in experiment [1]; in experiment [2] (setting [4]); in the experiment with WSU-DLCL2 cells (setting [3])) were 5.3 nM, 515 nM and 1310 nM, respectively.

Consider `CCN(c1cccc(C(=O)NCc2c(C)cc(C)[nH]c2=O)c1C)[C@H]1CC[C@H](N(C)CCOC)CC1` [Compound 10, N-((4,6-dimethyl-2-oxo-1,2-dihydropyridin-3-yl)methyl)-3-(ethyl((trans)-4-((2-methoxyethyl)(methyl)amino)cyclohexyl)amino)-2-methylbenzamide], for which the IC50 is 7.36 nM in experiment [1], 469 nM in experiment [2] (setting [4]) and 307 nM with WSU-DLCL2 cells (setting [3]).

With `CCN(c1cc(OC)cc(C(=O)NCc2c(C)cc(C)[nH]c2=O)c1C)[C@H]1CC[C@H](N(C)CCOC)CC1` [Compound 11, N-((4,6-dimethyl-2-oxo-1,2-dihydropyridin-3-yl)methyl)-3-(ethyl((trans)-4-((2-methoxyethyl)(methyl)amino)cyclohexyl)amino)-5-methoxy-2-methylbenzamide], the IC50 in experiment [1] turned out to be 6.27 nM; in experiment [2] (setting [4]), 673 nM.

In the case of `CCN(c1cc(OCCOC)cc(C(=O)NCc2c(C)cc(C)[nH]c2=O)c1C)[C@H]1CC[C@H](N(C)CCOC)CC1` [Compound 12, N-((4,6-dimethyl-2-oxo-1,2-dihydropyridin-3-yl)methyl)-3-(ethyl((trans)-4-((2-methoxyethyl)(methyl)amino)cyclohexyl)amino)-5-(2-methoxyethoxy)-2-methylbenzamide], the IC50 in experiment [1] amounted to 29 nM; in experiment [2] (setting [4]), 308 nM.

In the case of `CCN(c1cc(-c2ccc(C)nc2)cc(C(=O)NCc2c(C)cc(C)[nH]c2=O)c1C)[C@H]1CC[C@H](N(C)CCOC)CC1` [Compound 15], the figures for the IC50 (in experiment [1]; in experiment [2] (setting [4]); in the experiment with WSU-DLCL2 cells (setting [3])) were 4.86 nM, 340 nM and 346 nM, respectively.

Consider `CCN(c1cc(-c2ccc(OC)nc2)cc(C(=O)NCc2c(C)cc(C)[nH]c2=O)c1C)[C@H]1CC[C@H](N(C)CCOC)CC1` [Compound 16], for which the IC50 was 5.96 nM in experiment [1], 287 nM in experiment [2] (setting [4]) and 675 nM with WSU-DLCL2 cells (setting [3]).

For the compound `CCN(c1cc(-c2cnc(OC)cn2)cc(C(=O)NCc2c(C)cc(C)[nH]c2=O)c1C)[C@H]1CC[C@H](N(C)CCOC)CC1` [Compound 17], the IC50 is 12.9 nM in experiment [1], 402 nM in experiment [2] (setting [4]) and 507 nM in the experiment on WSU-DLCL2 cells (setting [3]).

For the compound `CCN(c1cc(-c2cnc(C)cn2)cc(C(=O)NCc2c(C)cc(C)[nH]c2=O)c1C)[C@H]1CC[C@H](N(C)CCOC)CC1` [Compound 18], the IC50 in experiment [1] was 8.59 nM; in experiment [2] (setting [4]), 553 nM.

As to `CCN(c1cc(-c2cncnc2)cc(C(=O)NCc2c(C)cc(C)[nH]c2=O)c1C)[C@H]1CC[C@H](N(C)CCOC)CC1` [Compound 21], the IC50 was determined as 10.1 nM in experiment [1], 840 nM in experiment [2] (setting [4]) and 1390 nM in the experiment on WSU-DLCL2 cells (setting [3]).

Regarding `CCN(c1cc(-c2cnccn2)cc(C(=O)NCc2c(C)cc(C)[nH]c2=O)c1C)[C@H]1CC[C@H](N(C)CCOC)CC1` [Compound 22], the values for the IC50 in experiment [1] and in experiment [2] (setting [4]) were 28.3 nM and 1040 nM, respectively.

Regarding `CCN(c1cc(-c2cnn(C)c2)cc(C(=O)NCc2c(C)cc(C)[nH]c2=O)c1C)[C@H]1CC[C@H](N(C)CCOC)CC1` [Compound 23], the results for the IC50 in experiment [1] and in experiment [2] (setting [4]) were below 5 nM and 401 nM, respectively.

As for `CCN(c1cc(C2CCOCC2)cc(C(=O)NCc2c(C)cc(C)[nH]c2=O)c1C)[C@H]1CC[C@H](N(C)CCOC)CC1` [Compound 25], the IC50 in experiment [1] was found to be 8.9 nM; in experiment [2] (setting [4]), 650 nM; in the experiment with WSU-DLCL2 cells (setting [3]), 2220 nM.

Turning to `CCN(c1cc(C#CCN2C[C@@H](C)N[C@@H](C)C2)cc(C(=O)NCc2c(C(C)C)cc(C)[nH]c2=O)c1C)C1CCOCC1` [Compound 101], the IC50 in experiment [1] (setting [5]) is below 10 nM; in experiment [2] (setting [6]) it was 126 nM; in the experiment with WSU-DLCL2 cells (setting [7]), 536 nM.

`CCN(c1cc(C#CC2CCN(C[C@@H](C)O)CC2)cc(C(=O)NCc2c(C(C)C)cc(C)[nH]c2=O)c1C)C1CCOCC1` [Compound 102]: the IC50 in experiment [1] (setting [5]) was 10 nM; in experiment [2] (setting [6]), 256 nM; in the experiment with WSU-DLCL2 cells (setting [7]) it was 614 nM.

Turning to `CCN(c1cc(C#CC2CCN(C[C@H](C)O)CC2)cc(C(=O)NCc2c(C(C)C)cc(C)[nH]c2=O)c1C)C1CCOCC1` [Compound 103], the IC50 in experiment [1] (setting [5]) is below 10 nM; in experiment [2] (setting [6]) it was 232 nM; in the experiment with WSU-DLCL2 cells (setting [7]), 745 nM.

With `CCN1CCC(C#Cc2cc(C(=O)NCc3c(C)cc(C)[nH]c3=O)c(C)c(N(CC)C3CCOCC3)c2)CC1` [Compound 104], the IC50 was below 10 nM in experiment [1] (setting [5]), 66 nM in experiment [2] (setting [6]) and 549 nM in the experiment on WSU-DLCL2 cells (setting [7]).

In the case of `CCN(c1cc(C#CCN2CCCCC2)cc(C(=O)NCc2c(C)cc(C)[nH]c2=O)c1C)C1CCOCC1` [Compound 106], the IC50 is below 10 nM in experiment [1] (setting [5]), 44 nM in experiment [2] (setting [6]) and 188 nM in the experiment with WSU-DLCL2 cells (setting [7]).

For `CCN(c1cc(C#CCN2CCCC2)cc(C(=O)NCc2c(C)cc(C)[nH]c2=O)c1C)C1CCOCC1` [Compound 107], the results for the IC50 (in experiment [1] (setting [5]); in experiment [2] (setting [6]); with WSU-DLCL2 cells (setting [7])) were 11 nM, 28 nM and 26.2 nM, respectively.

Turning to `CCN(c1cc(C#CCN2CCC[C@H](O)C2)cc(C(=O)NCc2c(C)cc(C)[nH]c2=O)c1C)[C@H]1CC[C@H](N(C)C)CC1` [Compound 108], the IC50 is below 10 nM in experiment [1] (setting [5]), 42 nM in experiment [2] (setting [6]) and 438 nM in the experiment with WSU-DLCL2 cells (setting [7]).

As for `CCN(c1cc(C#CCN2CC(O)C2)cc(C(=O)NCc2c(C)cc(C)[nH]c2=O)c1C)[C@H]1CC[C@H](N(C)C)CC1` [Compound 109], the IC50 in experiment [1] (setting [5]) was below 10 nM; in experiment [2] (setting [6]), 244 nM; with WSU-DLCL2 cells (setting [7]) it was 1060 nM.

Consider `CCN(c1cc(C#CC2CCN(C3CC3)CC2)cc(C(=O)NCc2c(C)cc(C)[nH]c2=O)c1C)C1CCOCC1` [Compound 157], for which the IC50 in experiment [1] is below 5 nM; in experiment [2] (setting [4]) it was 140 nM.

As to `CCN(c1cc(C#CC2CCN(C3CCC3)CC2)cc(C(=O)NCc2c(C)cc(C)[nH]c2=O)c1C)C1CCOCC1` [Compound 158], the IC50 in experiment [1] is below 5 nM; in experiment [2] (setting [4]), 215 nM.

Turning to `CCN(c1cc(C#CC2CCN(C3COC3)CC2)cc(C(=O)NCc2c(C)cc(C)[nH]c2=O)c1C)C1CCOCC1` [Compound 159], the IC50 is below 5 nM in experiment [1] and 262 nM in experiment [2] (setting [4]).

As for `CCN(c1cc(C#CC2CCN(C(C)=O)CC2)cc(C(=O)NCc2c(C)cc(C)[nH]c2=O)c1C)[C@H]1CC[C@H](N(C)C)CC1` [Compound 160], the IC50 was 14 nM in experiment [1] and 94 nM in experiment [2] (setting [4]).

Regarding `CCN(c1cc(C#CC2CCN(CC(F)(F)F)CC2)cc(C(=O)NCc2c(C)cc(C)[nH]c2=O)c1C)[C@H]1CC[C@H](N(C)C)CC1` [Compound 161], the IC50 in experiment [1] was below 5 nM; in experiment [2] (setting [4]), 34 nM.

Consider `CCN(c1cc(C#CC2CCN(C)CC2)cc(C(=O)NCc2c(OC)cc(C)[nH]c2=O)c1C)C1CCOCC1` [Compound 163], for which the IC50 in experiment [1] was below 5 nM; in experiment [2] (setting [4]), 43 nM.

Source of the values: patent US11642348B2, “Substituted benzene compounds” (Epizyme, Inc., priority 2012, dated 2023).
